Results published in patent publication US20110034510A1, “ENANTIOMER-ENRICHED ALPHA-,OMEGA-AMINO ALCOHOL DERIVATIVES, THEIR PRODUCTION AND USE AS INSECT- AND MITE-REPELLING AGENTS” (SALTIGO GMBH, priority 2006, published 2011).

How the values were obtained:
mosquitoes = experiment: Repellent test against mosquitoes on the human lower arm; assay type: in vivo; settings: compared to the standard racemic mixture; 150 μl test product on 90 cm^2 of human lower arm; 3-minute exposure every hour for up to 8 hours
From the text: B) Repellent Effectiveness of Formulations for Use Against Mosquitoes on the Human Arm: […]
The insects, as an actively biting population (approx. 1000 mosquitoes of both genders), are kept in cages (length 90 cm, width 30 cm, height 40 cm, side walls made of gauze) which have two light fabric gates on the front side. The insects have been fed exclusively with sugared water (10% Dextropur). The age of the insects is at least 7 days; the number of insects is made up twice per week by 3-day old fully grown insects.
The low electrical illumination of the cage is active from 6 am to 6 pm, with light from 6 pm to 6 am. The temperature is 25-27° C.; the relative air humidity is 50-70%.
The lower arms of the test subjects are washed with unperfumed soap, rinsed with water, then rinsed with a solution of 70% ethanol and 30% water, and dried with a towel.
90 cm^2 of each lower arm of a test subject is rubbed uniformly with 150 μl (or 150 mg) of the test product. As soon as the formulation is dry (after approx. 5 minutes), a sleeve with an opening of 3.1-8 cm (25 cm^2) is bound around the arm such that the opening is completely over the treated surface. The corners of the opening of the sleeve have likewise been rubbed with the test material (2000) in a width of 1 cm in order to prevent bites at the corners. The area above the sleeve has been protected with a towel through which the mosquitoes cannot penetrate. Hands are protected with latex gloves.
Both arms are introduced into the cage through the fabric gate, and the number of bites (and landings, if necessary) per arm is noted within a 3-minute test period. The test is repeated every hour for up to 8 hours, or ended beforehand if the effect ceases (3 or more bites within 3 minutes or during 2 successive test sequences). Each test consists of three to 5 test subjects.

Aedes aegypti = experiment: Repellent test on a guinea pig (Aedes aegypti); assay type: in vivo; settings: shaved guinea pig back (50 cm^2) treated with 0.4 ml of solution, 3 parts by weight active ingredient in 100 parts by volume ethanol; bites observed 10 minutes, repeated hourly, maximum 9 hours
Method: A) Repellent Test on a Guinea Pig
Test Animal: Aedes aegypti (Imagines)
3 parts by weight of active ingredient are taken up in 100 parts by volume of solvent
A guinea pig whose back has been shaved in an area of 50 cm^2 is accommodated in a box such that only the shaved area is accessible to the mosquitoes.
It is observed for 10 minutes how many mosquitoes bite the guinea pig. Subsequently, it is removed and the test is repeated after 1 hour. The experiment is performed for a maximum of 9 hours or until the effect ceases.

CC[C@@H](C)OC(=O)N1CCCC[C@@H]1CCO (single isomer, unassigned)
Increase in the protection time* in % (mosquitoes): 3% | Protection time (Aedes aegypti): 4.4 h

CCC(C)OC(=O)N1CCCCC1CCO (stereo in doubt) [1-[(R)-sec-butyloxycarbonyl]-2-(S)-(+)-(2-hydroxyethyl)piperidine]
Increase in the protection time* in % (mosquitoes): 12% | Protection time (Aedes aegypti): 3.4 h

CC[C@H](C)OC(=O)N1CCCC[C@@H]1CCO (stereo in doubt) [1-[(S)-sec-butyloxycarbonyl]-2-(R)-(+)-(2-hydroxyethyl)piperidine]
Increase in the protection time* in % (mosquitoes): 0% | Protection time (Aedes aegypti): 4.9 h

CC[C@H](C)OC(=O)N1CCCC[C@H]1CCO [1-[(S)-sec-butyloxycarbonyl]-2-(S)-(2-hydroxyethyl)piperidine]
Increase in the protection time* in % (mosquitoes): 0% | Protection time (Aedes aegypti): 3.9 h
